The text below walks through data of US20090047243A1, “COMBINATIONS FOR THE TREATMENT OF B-CELL PROLIFERATIVE DISORDERS” (priority 2007, published 2009).

A word on the Ki: it is the equilibrium dissociation constant of an inhibitor or competing ligand from its target.

Assay [1] deals with EJM MM cell line. Put plainly: Anti-proliferation assay (ATPLite, 72 h). The conditions noted are these: CGS-21680 × PDE inhibitor. The class given is cell-based, human. As for the experimental part:
(§1) ANBL6 and INA-6 culture media was also supplemented with 10 ng/ml IL-6. […] MM.1S, MM.1R, OCI-ly10, Karpas 422, and SU-DHL6 cells were provided by the Dana Farber Cancer Institute. H929, RPMI-8226, GA-10, and Farage cells were from ATCC (Cat #'s CCL-155, CRL-9068, CRL-2392 and CRL-2630 respectively). MOLP-8, EJM, KSM-12-PE, and OPM2 were from DSMZ. The ANBL6 and INA-6 cell lines were provided by the M. D. Anderson Cancer Research Center. Compounds were prepared in DMSO at 1000× the highest desired concentration. Master plates were generated consisting of serially diluted compounds in 2- or 3-fold dilutions in 384-well format. For single agent dose response curves, the master plates consisted of 9 individual compounds at 12 concentrations in 2- or 3-fold dilutions. For combination matrices, master plates consisted of individual compounds at 6 or 9 concentrations at 2- or 3-fold dilutions. […] To obtain combination data, two master plates were diluted into the assay plates. […] Thirty microliters of ATPLite (Perkin Elmer) at room temperature was then added to each well. […] Measurements were taken at the top of the well using a luminescence aperture and a read time of 0.1 seconds per well. The percent inhibition (% I) for each well was calculated using the following formula: % I=[(avg. untreated wells-treated well)/(avg. untreated wells)]×100. […] Negative inhibition values result from local variations in treated wells as compared to untreated wells. […] The uncertainty of each fitted parameter was estimated from the range over which the change in reduced chi-squared was less than one, or less than minimum reduced chi-squared if that minimum exceeded one, to allow for underestimated σI errors. Single agent curve data were used to define a dilution series for each compound to be used for combination screening in a 6×6 matrix format. […] The Loewe additivity model was used to quantify combination effects. […] A “Synergy Score” was also used, where the Synergy Score S=log fX log fY ΣIdata(Idata-ILoewe), summed over all non-single-agent concentration pairs, and where log fX,Y is the natural logarithm of the dilution factors used for each single agent. This effectively calculates a volume between the measured and Loewe additive response surfaces, weighted towards high inhibition and corrected for varying dilution factors. An uncertainty σS was calculated for each synergy score, based on the measured errors for the Idata values and standard error propagation.
(In ATP-based viability assays light output follows the ATP content of the culture.)

Assay [2] has as its system ANBL6 MM cell line. The assay is described as follows: Anti-proliferation assay (ATPLite, 72 h). It is filed as cell-based, human. The conditions noted are these: CGS-21680 × PDE inhibitor. As for the experimental part: as §1
The test system of assay [3] is patient CLL cells. The assay is described as follows: Apoptosis assay (Hoechst 33342, flow cytometry, 48 h). It is filed as cell-based, human. More on the design: unit not given here. The conditions noted are these: CGS-21680 0 μM. An excerpt:
Blood samples were obtained in heparinized tubes with IRB-approved consent from flow cytometry-confirmed B-CLL patients that were either untreated or for whom at least 1 month had elapsed since chemotherapy. Patients with active infections or other serious medical conditions were not included in this study. Patients with white blood cell counts of less than 15,000/μl by automated analysis were excluded from this study. Whole blood was layered on Ficoll-Hystopaque (Sigma), and peripheral blood mononuclear cells (PBMC) isolated after centrification. […] One million cells were stained with anti-CD5-PE and anti-CD19-PE-Cy5 (Becton Dickenson, Franklin Lakes N.J.). The percentage of B-CLL cells was defined as the percentage of cells doubly expressing CD5 and CDl9, as determined by flow cytometry. […] Compound master plates were diluted 1:50 into complete media to create working compound dilutions. Compound crosses were then created by diluting two working dilution plates 1:10 into each plate of cells. […] Hoechst 33342 (Molecular Probes, Eugene Oreg.) at a final concentration of 0.25 μg/1 mL was added to each well, and the cells incubated at 37° C. for an additional ten minutes before being placed on ice until analysis. Plates were then analyzed on a LSR-II flow cytometer (Becton Dickenson, Franklin Lakes, N.J.) equipped with the High Throughput Sampling (HTS) option in high throughput mode. […] The apoptotic fraction was calculated using FlowJo software (Tree Star Inc., Ashland, Oreg.) after excluding debris by a FSC/SSC gate and subsequently gating for cells that accumulate the Hoechst dye.
Background: Flow cytometry measures light scatter and fluorescence of single cells or particles in a stream.

In assay [4] the test system is human multiple myeloma cells (MM.1R). Put plainly: Anti-proliferation assay (ATPLite, 72 h). The class given is cell-based. More on the design: key: S = lnfX·lnfY·ΣIdata(Idata−ILoewe), volume over Loewe additivity. Put shortly:
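Percent inhibition, calculated against averaged untreated wells, derives from ATPLite luminescence. Dose-response curves spanned 12 concentrations in 2- or 3-fold steps. IL-6 at 10 ng/ml was added to the ANBL6 culture medium.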

Assay [5] has as its target A2A receptor (Homo sapiens, UniProt P29274). Particulars: cited from earlier work.
Setting [6] is: in combination with adenosine receptor agonist CGS-21680, MM.1R.
[7] abbreviates: in combination with adenosine receptor agonist regadenoson, MM.1R.

Structures are written as SMILES. Counter-ions that a name gives are not always drawn.

Sequence of A2A receptor (P29274 whole entry): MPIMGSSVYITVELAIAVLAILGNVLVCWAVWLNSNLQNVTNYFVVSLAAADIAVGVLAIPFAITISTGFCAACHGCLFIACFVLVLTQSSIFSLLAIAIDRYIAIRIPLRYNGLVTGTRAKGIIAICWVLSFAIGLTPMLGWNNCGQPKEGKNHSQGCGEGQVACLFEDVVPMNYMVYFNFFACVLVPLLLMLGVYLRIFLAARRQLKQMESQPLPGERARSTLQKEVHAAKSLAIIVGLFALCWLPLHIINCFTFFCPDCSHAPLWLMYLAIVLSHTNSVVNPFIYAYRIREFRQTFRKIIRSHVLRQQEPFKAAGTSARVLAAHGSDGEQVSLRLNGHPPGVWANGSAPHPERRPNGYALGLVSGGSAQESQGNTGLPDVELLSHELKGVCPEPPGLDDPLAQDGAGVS

As for `COc1cc2c(cc1OC)-c1cc(=Nc3c(C)cc(C)cc3C)n(C)c(=O)n1CC2` [Trequinsin hydrochloride, 2,3,6,7-tetrahydro-9,10-dimethoxy-3-methyl-2-((2,4,6-trimethylphenyl)imino)-4H-pyrimido(6,1-a)isoquinolin-4-one], the synergy score in assay [1] was 4.81; in assay [2], 4.55; in assay [4] (in combination with adenosine receptor agonist ADAC, MM.1R) it was 6.47; in assay [4] (setting [6]) it was 6.57; in assay [4] (in combination with adenosine receptor agonist HE-NECA, MM.1R) it was 4.329; in assay [4] (setting [7]), 2.8. For the same molecule, the Induction of apoptosis in assay [3] (Trequinsin 0.22 μM) came to 8.9; in assay [3] (Trequinsin 2 μM) it was 19; in assay [3] (Trequinsin […]), 9.9.
Regarding `CCCCC#Cc1nc(N)c2ncn([C@@H]3O[C@H](C(=O)NCC)[C@@H](O)[C@H]3O)c2n1` [HE-NECA, hexynyladenosine-5′-N-ethylcarboxamide], in assay [5], the Ki is approximately 27 nM.
With `COc1cc(-c2ccc(=O)[nH]n2)ccc1OC(F)F` [Zardaverine, 6-(4-(difluoromethoxy)-3-methoxyphenyl)-3(2H)-Pyridazinone], the synergy score was determined as 0.98 in assay [1], 2.11 in assay [2], 2.15 in assay [4] (setting [6]) and 1.49 in assay [4] (setting [7]).
